According to patent publication US10894817B2, “Fatty acid modified urocortin-2 analogs for the treatment of diabetes and chronic kidney disease” (priority 2016, dated 2021):
Where two headings read alike, the source gives them in different places. Starred links: 1 amine or outer side, 2 acyl side, 3 side chain; linkers in the order of their positions; H or OH if unused. Non-standard residues stand in square brackets, D forms with d. Residues, ends and D or L forms follow the SMILES beside them. Groups on a side chain read outwards from the residue. *: point of attachment. C20 diacid = O=C(O)CCCCCCCCCCCCCCCCCCC(=O)*; C18 diacid = O=C(O)CCCCCCCCCCCCCCCCC(=O)*; γGlu = O=C(O)[C@H](CCC(=O)[*:2])N[*:1]; NMeI = CC[C@H](C)[C@H](NC)C(=O)O; AEEA = NCCOCCOCC(=O)O

Target: T1, human CRHR2b (Homo sapiens, UniProt Q13324)
T1 construct: expressed in transfected cells; host or cells: Chinese Hamster Ovary (CHO) cells, transient transfection
T1 sequence (Q13324 1-438 isoform Q13324-2): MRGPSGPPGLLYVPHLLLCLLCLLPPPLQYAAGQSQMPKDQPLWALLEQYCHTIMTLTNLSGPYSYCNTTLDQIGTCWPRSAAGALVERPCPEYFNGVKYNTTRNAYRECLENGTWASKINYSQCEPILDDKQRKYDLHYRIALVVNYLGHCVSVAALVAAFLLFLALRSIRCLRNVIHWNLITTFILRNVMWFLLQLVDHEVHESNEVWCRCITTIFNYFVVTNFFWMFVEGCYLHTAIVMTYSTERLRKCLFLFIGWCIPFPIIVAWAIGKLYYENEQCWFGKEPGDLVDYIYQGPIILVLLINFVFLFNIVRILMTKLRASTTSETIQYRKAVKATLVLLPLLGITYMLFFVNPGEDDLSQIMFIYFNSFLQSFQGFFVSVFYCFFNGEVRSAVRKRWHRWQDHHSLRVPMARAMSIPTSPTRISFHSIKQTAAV
Assay: human CRHR2b cell-based cAMP assay
Conditions: cAMP assay, read-out: hCRHR2b Average EC50
Method in brief: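 ED50 values are means ± SEM over several runs, curve-fitted from cAMP in pmol, calibrated against unlabeled-cAMP standards. Detection was HTRF competition, ratio 665/620 nm, after 30 min agonist exposure at 37 °C.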

[1] = Table 26, compounds of Example 9

Row | EC50 (CHO cells transfected with human CRHR2b, mean ± SEM of runs) | EC50 [1] | Compound
1 | 1.01 ± 0.23 nM | – | CC[C@H](C)[C@H](NC)C(=O)N[C@H](C(=O)N[C@H](C(=O)N[C@@H](CO)C(=O)N[C@@H](CC(C)C)C(=O)N[C@@H](CC(=O)O)C(=O)N[C@H](C(=O)N1CCC[C@H]1C(=O)N[C@H](C(=O)NCC(=O)N[C@@H](CC(C)C)C(=O)N[C@@H](CC(C)C)C(=O)N[C@@H](CCC(N)=O)C(=O)N[C@H](C(=O)N[C@@H](CC(C)C)C(=O)N[C@@H](CC(C)C)C(=O)N[C@@H](CCC(=O)O)C(=O)N[C@@H](CCC(N)=O)C(=O)N[C@@H](CCC(=O)O)C(=O)N[C@@H](CCCCN)C(=O)N[C@@H](CCC(N)=O)C(=O)N[C@@H](CCC(=O)O)C(=O)N[C@@H](CCCCN)C(=O)N[C@@H](CCC(=O)O)C(=O)N[C@@H](CCCCN)C(=O)N[C@@H](CCC(N)=O)C(=O)N[C@@H](CCC(N)=O)C(=O)N[C@@H](C)C(=O)N[C@@H](CCCCNC(=O)COCCOCCNC(=O)COCCOCCNC(=O)CC[C@H](NC(=O)CC[C@H](NC(=O)CCCCCCCCCCCCCCCCCCC(=O)O)C(=O)O)C(=O)O)C(=O)N[C@H](C(=O)N[C@@H](CC(N)=O)C(=O)N[C@@H](C)C(=O)N[C@@H](CCC(=O)O)C(=O)N[C@H](C(=O)N[C@@H](CC(C)C)C(=O)N[C@@H](C)C(=O)N[C@@H](CCC(N)=O)C(=O)N[C@H](C(N)=O)C(C)C)[C@@H](C)CC)[C@@H](C)O)[C@@H](C)CC)[C@@H](C)CC)C(C)C)[C@@H](C)O)C(C)C [Example 5] (H-[NMeI]VTSLDVPIGLLQILLEQEKQEKEKQQAK([AEEA-AEEA-γGlu-γGlu-C20 diacid])TNAEILAQV-NH2)
2 | – | 3.61 nM | CC[C@H](C)[C@H](N)C(=O)N[C@H](C(=O)N[C@@H](CC(C)C)C(=O)N[C@@H](CO)C(=O)N[C@@H](CC(C)C)C(=O)N[C@@H](CC(=O)O)C(=O)N[C@H](C(=O)N1CCC[C@H]1C(=O)N[C@H](C(=O)NCC(=O)N[C@@H](CC(C)C)C(=O)N[C@@H](CC(C)C)C(=O)N[C@@H](CCC(N)=O)C(=O)N[C@H](C(=O)N[C@@H](CC(C)C)C(=O)N[C@@H](CC(C)C)C(=O)N[C@@H](CCC(=O)O)C(=O)N[C@@H](CCC(N)=O)C(=O)N[C@@H](CCC(=O)O)C(=O)N[C@@H](CCCCN)C(=O)N[C@@H](CCC(N)=O)C(=O)N[C@@H](CCC(=O)O)C(=O)N[C@@H](CCCCN)C(=O)N[C@@H](CCC(=O)O)C(=O)N[C@@H](CCCCN)C(=O)N[C@@H](CCC(N)=O)C(=O)N[C@@H](CCC(N)=O)C(=O)N[C@@H](C)C(=O)N[C@@H](CCCCNC(=O)COCCOCCNC(=O)COCCOCCNC(=O)CC[C@H](NC(=O)CC[C@H](NC(=O)CCCCCCCCCCCCCCCCC(=O)O)C(=O)O)C(=O)O)C(=O)N[C@H](C(=O)N[C@@H](CC(N)=O)C(=O)N[C@@H](C)C(=O)N[C@@H](CCC(N)=O)C(=O)N[C@H](C(=O)N[C@@H](CC(C)C)C(=O)N[C@@H](C)C(=O)N[C@@H](Cc1c[nH]cn1)C(=O)N[C@H](C(N)=O)C(C)C)[C@@H](C)CC)[C@@H](C)O)[C@@H](C)CC)[C@@H](C)CC)C(C)C)C(C)C [Compound 48] (H-IVLSLDVPIGLLQILLEQEKQEKEKQQAK([AEEA-AEEA-γGlu-γGlu-C18 diacid])TNAQILAHV-NH2)
3 | – | 1.17 nM | IVLSLDVPIGLLQILLEQEKQEKEKQQAK*ENAQILAQV-NH2 [Compound 56, K* at position 29 bonded with ([2-(2-Amino-ethoxy)-ethoxy]-acetyl)2-γE-CO—(CH2)16—COOH; C-terminal primary amide]
